ChEMBL document CHEMBL4483862, “Open-source discovery of chemical leads for next-generation chemoprotective antimalarials” (2018)

Tested on: Plasmodium berghei
Experiment: Luciferase/luciferin-expressing antifolate-resistant parasites were used to infect a culture of HepG2 cells that were pre-incubated with compounds. Infected hepatocytes emit light due to the luciferase reaction. Assay results are presented as the percent inhibition of light emission compared to control. […]
Assay type: functional
Settings: sporozoite; for IC90: read-out: LUCIFERASE INFECTION ASSAY - IC90
[1] = read-out: LUCIFERASE INFECTION ASSAY - IC50

Structure (SMILES) | IC90 [µM] | IC50 [1] [µM] | other results
CSc1sc(C(=O)N/N=C/c2ccccc2)c2c1C1(CCC2)SCCS1 | > 7.85 |  | IC50 (PBLUC_HILL_SLOPE 1.27, PBLUC_R_SQUARED 0.257, read-out: LUCIFERASE INFECTION ASSAY - IC50): 5.56 µM
c1ccc(CN2CCC(Nc3nc(-c4ccccn4)nc4scc(-c5ccccc5)c34)CC2)cc1 | > 10 | > 10 | 
COc1ccccc1/C=C(/C(=O)OCc1cn2ccccc2c1C#N)c1ccccc1 | > 10 |  | IC50 (PBLUC_HILL_SLOPE 16.4, PBLUC_R_SQUARED 0.216, read-out: LUCIFERASE INFECTION ASSAY - IC50): 9.92 µM
C=CCn1c(COc2ccccc2F)nnc1Sc1cc(C)nc2ncnn12 | > 10 | > 10 | 
Nc1nc(-c2ccc(OCc3ccc(F)cc3)cc2)cs1 | > 8.66 | > 8.66 | 
Nc1ccc(-c2cn3c(-c4ccc(CO)cc4)cnc3cn2)cn1 | 9.13 | 5.8 | 
CSc1sc(C(=O)Nc2cc(C(F)(F)F)cc(C(F)(F)F)c2)c(-c2ccc(Cl)cc2)c1C#N | 2.43 | 0.839 | 
CC(C)c1ccc(-c2noc(CCC(=O)Nc3ccn(C)n3)n2)cc1 | > 10 | > 10 | 
CN(C)c1nc(C=C(C#N)C#N)c(Cl)n1-c1ccc(F)cc1 | > 10 | > 10 | 
Cc1ccc(C(=O)OC(C)C(=O)N2CCCC2)cc1S(=O)(=O)N1CCCCC1 (stereo unspecified) | 1.37 |  | IC50 (PBLUC_HILL_SLOPE 7.98, PBLUC_R_SQUARED 0.937, read-out: LUCIFERASE INFECTION ASSAY - IC50): 1.04 µM
COc1ccc(-c2cc(NC=O)c3ncc(-c4cc(OC)c(OC)c(OC)c4)n3c2)c(OC)c1 | 5.96 |  | IC50 (FFLUC_HILL_SLOPE 13.2, FFLUC_R_SQUARED 0.535, HEPG2TOX_HILL_SLOPE 2.06, HEPG2TOX_R_SQUARED 0.871, PBLUC_HILL_SLOPE 2.04, PBLUC_R_SQUARED 0.466, read-out: LUCIFERASE INFECTION ASSAY - IC50): 2.03 µM
Cc1ccc(-n2nc(C)c(/C=C3\SC(=S)N(c4ccc(C(=O)O)cc4)C3=O)c2Cl)c(C)c1 | > 10 | 9.42 | 
CCOC(=O)C1=C(c2ccccc2)N=C(N)NC1c1ccc(OCc2ccc(Cl)cc2)c(OC)c1 (stereo unspecified) | > 10 |  | IC50 (PBLUC_HILL_SLOPE 5.7, PBLUC_R_SQUARED 0.538, read-out: LUCIFERASE INFECTION ASSAY - IC50): 7.1 µM
CCCCNS(=O)(=O)c1ccc2nc(SCC3CCCO3)[nH]c2c1 (stereo unspecified) | > 10 |  | IC50 (HEPG2TOX_HILL_SLOPE 0.14, HEPG2TOX_R_SQUARED 0.119, PBLUC_HILL_SLOPE 2.38, PBLUC_R_SQUARED 0.33, read-out: LUCIFERASE INFECTION ASSAY - IC50): 9.76 µM
O=C(c1ccco1)N(Cc1nccs1)c1ccc(-c2ccccc2)cc1 | > 9.16 | > 9.16 | 
COc1ccc(-c2csc3ncnc(NC4CCN(S(C)(=O)=O)CC4)c23)cc1 | > 10 |  | IC50 (FFLUC_HILL_SLOPE 15, FFLUC_R_SQUARED 0.503, HEPG2TOX_HILL_SLOPE 1.74, HEPG2TOX_R_SQUARED 0.848, read-out: LUCIFERASE INFECTION ASSAY - IC50): > 10 µM
CCc1nnc(NC(=O)c2csc(Cc3ccccc3)n2)s1 | > 10 | 8.84 | 
C/C(=N\NC(=S)Nc1ccc(Cl)cc1)c1ccn[nH]1 | 4.51 |  | IC50 (HEPG2TOX_HILL_SLOPE 2.63, HEPG2TOX_R_SQUARED 0.844, PBLUC_HILL_SLOPE 3.05, PBLUC_R_SQUARED 0.682, read-out: LUCIFERASE INFECTION ASSAY - IC50): 2.19 µM
NC(=O)c1cccc(-c2ccc3ncc(-c4cccc(O)c4)n3n2)c1 | 7.72 |  | IC50 (HEPG2TOX_HILL_SLOPE 3.39, HEPG2TOX_R_SQUARED 0.986, PBLUC_HILL_SLOPE 6.74, PBLUC_R_SQUARED 0.592, read-out: LUCIFERASE INFECTION ASSAY - IC50): 5.57 µM
CCC(=O)Nc1c(-c2nc3ccccc3[nH]2)c(C)c(C)n1C1CCCC1 | > 9.42 |  | IC50 (PBLUC_HILL_SLOPE 2, PBLUC_R_SQUARED 0.418, read-out: LUCIFERASE INFECTION ASSAY - IC50): 6.01 µM
COc1cc(OC)c2c(-c3ccccc3)cc(SCC(=O)N(C)C3CCS(=O)(=O)C3)nc2c1 (stereo unspecified) | > 10 | > 10 | 
CCCNS(=O)(=O)c1cccc(C(=O)N2CCN(c3cccc(OC)c3)CC2)c1 | > 10 |  | IC50 (HEPG2TOX_HILL_SLOPE 3.58, HEPG2TOX_R_SQUARED 0.848, read-out: LUCIFERASE INFECTION ASSAY - IC50): > 10 µM
CN(CCCN1C(=O)c2ccccc2C1=O)CC(=O)N(C)C | > 10 | > 10 | 

Structure (SMILES) | IC90 [µM] | IC50 [1] [µM] | other results
O=C(Nc1cccc(SC(F)(F)C(F)(F)C(F)(F)F)c1)C1(S(=O)(=O)c2ccccc2)CC1 | > 10 | > 10 | 
Cc1ccc(C2=NN(C(=O)Cn3nc(C)c(S(=O)(=O)N(C)C)c3C)C(c3ccco3)C2)cc1 (stereo unspecified) | > 10 |  | IC50 (FFLUC_HILL_SLOPE 21, FFLUC_R_SQUARED 0.497, read-out: LUCIFERASE INFECTION ASSAY - IC50): > 10 µM
O=C(Nc1ccc2c(c1)OCO2)c1cnc(N2CCN(CCc3ccccc3)C2=O)o1 | > 10 |  | IC50 (HEPG2TOX_HILL_SLOPE 7.5, HEPG2TOX_R_SQUARED 0.498, PBLUC_HILL_SLOPE 1.96, PBLUC_R_SQUARED 0.361, read-out: LUCIFERASE INFECTION ASSAY - IC50): 3.61 µM
CN(C)S(=O)(=O)c1ccc2oc3nnc(SCc4csc(-c5ccccc5)n4)n3c2c1 | > 10 | > 10 | 
COc1ccc(-n2nc(C)c3c(=O)c(Cl)c(C)[nH]c32)cc1 | > 10.9 |  | IC50 (PBLUC_HILL_SLOPE 4.15, PBLUC_R_SQUARED 0.0529, read-out: LUCIFERASE INFECTION ASSAY - IC50): 10.4 µM
N#Cc1ccc(-c2cnc3cnc(-c4cccc(C(N)=O)c4)cn23)cc1 | 8.67 |  | IC50 (PBLUC_HILL_SLOPE 12.9, PBLUC_R_SQUARED 0.447, read-out: LUCIFERASE INFECTION ASSAY - IC50): 7.32 µM
O=C1/C(=C\c2ccccn2)N(CCc2ccccc2)S(=O)(=O)c2ccccc21 | > 8.45 | > 8.45 | 
Cc1ccc2cc(CN(CC(C)C)C(=O)c3cccc(Cl)c3)c(=O)[nH]c2c1 | 4.61 |  | IC50 (FFLUC_HILL_SLOPE 2.55, FFLUC_R_SQUARED 0.111, HEPG2TOX_HILL_SLOPE 13.7, HEPG2TOX_R_SQUARED 0.575, PBLUC_HILL_SLOPE 6.1, PBLUC_R_SQUARED 0.569, read-out: LUCIFERASE INFECTION ASSAY - IC50): 3.21 µM
COc1cccc(CN2CCC2(C)C(=O)Nc2cccc(Oc3ccccc3)c2)c1F (stereo unspecified) | > 7.85 |  | IC50 (HEPG2TOX_HILL_SLOPE 2.25, HEPG2TOX_R_SQUARED 0.907, PBLUC_HILL_SLOPE 3.39, PBLUC_R_SQUARED 0.419, read-out: LUCIFERASE INFECTION ASSAY - IC50): 5.73 µM
O=C(NNc1cccc(F)n1)C(F)(F)F | 0.37 |  | IC50 (PBLUC_HILL_SLOPE 2.9, PBLUC_R_SQUARED 0.705, read-out: LUCIFERASE INFECTION ASSAY - IC50): 0.174 µM
FC(F)(F)c1cc(NCc2ccc(Cl)cc2)nc(-c2ccccn2)n1 | > 9.05 |  | IC50 (PBLUC_HILL_SLOPE 3.87, PBLUC_R_SQUARED 0.118, read-out: LUCIFERASE INFECTION ASSAY - IC50): 5.66 µM
O=C(NCCSCc1ccc2nonc2c1)c1ccc(Cl)cc1Cl | > 8.63 | > 8.63 | 
Cc1nn(-c2ccc(F)cc2)c2ncc(C(=O)Nc3nc(C4CC4)cs3)cc12 | 4.45 |  | IC50 (PBLUC_HILL_SLOPE 2.65, PBLUC_R_SQUARED 0.58, read-out: LUCIFERASE INFECTION ASSAY - IC50): 1.94 µM
CC1=CC(=O)N(c2ccc(F)c(Cl)c2)C1=O | > 13.8 |  | IC50 (HEPG2TOX_HILL_SLOPE 6.55, HEPG2TOX_R_SQUARED 0.196, PBLUC_HILL_SLOPE 2.8, PBLUC_R_SQUARED 0.561, read-out: LUCIFERASE INFECTION ASSAY - IC50): 8.94 µM
Cc1ccc(S(=O)(=O)N2CCCC(C(=O)NNC(=O)CCNC(=O)/C=C/c3ccccc3)C2)cc1 (stereo unspecified) | > 10 | > 10 | 
CCOC(=O)C1=C(N)n2c(s/c(=C\c3ccc(OC)cc3)c2=O)=CC1c1ccc(OC)cc1 (stereo unspecified) | > 7.1 | > 7.1 | 
C=CCN(C(=O)CCc1ccc(S(=O)(=O)N2CCCCCC2)cc1)c1nc2c(s1)CCCC2 | > 10 |  | IC50 (HEPG2TOX_HILL_SLOPE 1.95, HEPG2TOX_R_SQUARED 0.844, PBLUC_HILL_SLOPE 2.62, PBLUC_R_SQUARED 0.304, read-out: LUCIFERASE INFECTION ASSAY - IC50): 8.2 µM
CCOc1cc(/C=C/C(=O)c2ccc3c(c2)OCCO3)cc(Br)c1OCC(=O)N(C)C | 9.9 |  | IC50 (PBLUC_HILL_SLOPE 4.45, PBLUC_R_SQUARED 0.571, read-out: LUCIFERASE INFECTION ASSAY - IC50): 6.04 µM
Cc1nc(C(=O)NNC(=O)c2c(-c3c(Cl)cccc3Cl)noc2C)cs1 | 3.12 |  | IC50 (HEPG2TOX_HILL_SLOPE 1.49, HEPG2TOX_R_SQUARED 0.872, PBLUC_HILL_SLOPE 12.3, PBLUC_R_SQUARED 0.357, read-out: LUCIFERASE INFECTION ASSAY - IC50): 2.61 µM
FC(F)(F)c1cc(NCc2ccccc2C(F)(F)F)nc(-c2ccccn2)n1 | 7.12 |  | IC50 (PBLUC_HILL_SLOPE 3.13, PBLUC_R_SQUARED 0.711, read-out: LUCIFERASE INFECTION ASSAY - IC50): 3.52 µM
COCCn1c(C(=O)OC)c(NC(=O)c2ccco2)c2cc(NCCc3ccccc3)cnc21 | > 7.14 |  | IC50 (PBLUC_HILL_SLOPE 0.526, PBLUC_R_SQUARED 0.429, read-out: LUCIFERASE INFECTION ASSAY - IC50): 4.07 µM
COC(=O)c1c(-c2ccccc2Cl)noc1/C=C/c1c[nH]c(=O)c2c(-c3ccccc3Cl)noc12 | > 6.49 |  | IC50 (PBLUC_HILL_SLOPE 1.63, PBLUC_R_SQUARED 0.42, read-out: LUCIFERASE INFECTION ASSAY - IC50): 3.61 µM
CN(CC1COc2ccccc2O1)C(=O)Nc1nc2ccccc2s1 (stereo unspecified) | > 10 |  | 
